Patent US10464952B2, “Beta-lactamase inhibitors” (priority 2015, dated 2019)

Tests used:
SHV-5 = molecular target: T1, SHV-5 (Klebsiella pneumoniae, UniProt P0A3M1); assay: β-lactamase enzyme inhibition assay, SHV-5 (cefotaxime substrate); format: biochemical
T1 construct: made in house; host or cells: E. coli BL21(DE3)
Procedure: (§1) For SHV-5, KPC-2, p99AmpC and OXA-4813-lactamases, E. coli BL21(DE3) bacterial cells carrying expression plasmids (expressed as native untagged proteins) for the individual β-lactamases were grown in 1L of Superbroth (Teknova Inc. Hollister, Calif.) supplemented with 100 μg/ml kanamycin selection and 1×5052 (0.5% glycerol, 0.05% glucose and 0.2% α-lactose) at 35° C. for 18-20 hours. Cells were harvested by centrifugation (4,000 ×g, 4° C., 20 min), re-suspended in 50 ml of 10 mM HEPES pH 7.5 (1/20 of the initial volume). The cells were lysed by sonication (5 pulses of 45 seconds) at 45 Won ice. The lysates were clarified by centrifugation at 10,000 ×g for 40 minutes at 4° C. Samples were diluted 5-fold in 50 mM sodium acetate pH 5.0, stored overnight at 4° C., after which they were centrifuged at 10,000 ×g for 30 minutes to clarify, and filtered through 0.45 μm filters. The samples were loaded onto a 5 ml Capto S sepharose cation exchange column (GE Healthcare) pre-equilibrated with 50 mM sodium acetate pH 5.0. The column was washed with 5 column volumes of 50 mM sodium acetate pH 5.0 to wash out unbound protein and a linear gradient of NaCl (0 to 500 mM) was used to elute the protein (over 16 CV) from the column. Fractions were assayed for β-lactamase activity using Centa (Calbiochem, Gibbstown, N.J.) or Nitrocefin (EMD Millipore chemicals, Darmstadt, Germany) as a reporter β-lactamase substrate for activity in the isolated fractions. Active fractions were pooled, concentrated and further purified by gel filtration chromatography on a Superdex 75 prep grade gel filtration column (GE Healthcare, Piscataway, N.J.) pre -equilibrated in 50 mM Hepes pH 7.5, 150 mM NaCl. Active fractions were pooled, concentrated, and quantitated by BCA protein determination (ThermoScientific, Rockford, Ill.), dialyzed into PBS and frozen at […] in 20% glycerol until use.
(§2) An equal volume of diluted enzyme stock was added, and the plates were incubated at 37° C. for 15 min. Nitrocefin was used as substrate for p99 AmpC, VIM-2 and OXA-48 and dispensed into each well at a final concentration of 100 μM. Absorbance at 486 nm was immediately monitored for 10 min using a Biotek Powerwave XS2 microplate spectrophotometer using the GEN5 software package (Biotek Instruments, Winooski Vt.). In an analogous fashion, imipenem was used as substrate for KPC-2 and Cefotaxime was used for SHV-5, while changes in absorbance upon hydrolysis of the β-lactam ring were monitored at 300 nm and 260 nm respectively in UV-transparent 96-well microtiter assay plates. Maximum rates of hydrolysis were compared to those in control wells (without inhibitors), and percentages of enzyme inhibition were calculated for each concentration of inhibitor. The concentration of inhibitor needed to reduce the initial rate of hydrolysis of substrate by 50% (IC50) was calculated as the residual activity of β-lactamase at 486 nm using GraFit version 7 kinetics software package (Erithacus Software, Surrey, UK).
(§3) Using the methodology described above, examples of the current invention were evaluated for their ability to inhibit β-lactamase enzymes from all four Ambler classifications (A through D). […] NT=Not tested.

[1] = tested on: P.aeruginosa expressing the Class B carbapenemase VIM-2; assay: Broth microdilution MIC assay, potentiation of meropenem; format: cell-based; settings: Fixed Mero 4 μg/mL; CAMHB, 16-20 hours at 37° C.
From the text: (§4) To determine the ability of test compounds to potentiate the inhibition of the growth of bacterial strains that produce beta-lactamase enzymes, classic cell based broth microdilution MIC assays were employed. Six bacteria strains producing beta-lactamase enzymes were used: E. coli expressing the Class A Extended Spectrum Beta-Lactamase (ESBL) CTX-M-15, E. cloacae expressing the Class C P99, K. pneumoniae expressing the Class A carbapenemase KPC-3, P.aeruginosa expressing the Class B carbapenemase VIM-2, K. pneumoniae expressing the class A carbapenemase KPC-2 and the class B carbapenemase VIM-4, and K. pneumoniae producing the Class D carbapenemase OXA-48. The assay was conducted in Cation Adjusted Mueller Hinton Broth (CAMHB, BD #212322, BD Diagnostic Systems, Sparks, Md.). Bacteria strains were grown for 3-5 hours in CAMHB broth. Test compounds were added to a microtiter plate in 2-fold serial dilutions in CAMHB in a final concentration range of 32 μg/mL to 0.015 μg/mL. An overlay of CAMHB containing a Beta-lactam was added to the compounds at a final static concentration of 4 μg/mL. […] In addition to the titration of test compounds the MICs of a panel of control beta-lactams is also tested to ensure the strains are behaving consistently from test to test. Once the test compound and antibiotics are added the plates can be inoculated according to CLSI broth microdilution method. After inoculation, the plates are incubated for 16-20 hours at 37° C., then the Minimal Inhibitory Concentration (MIC) of the test compound is determined visually.
(§5) Using the methodology described above, examples of the current invention were evaluated for their ability to inhibit the growth of β-lactamase-producing bacteria in the presence of a β-lactam antibiotic.
(§6) Representative results are shown in Table 3 where A represents an MIC of the fixed β-lactam antibiotic in the presence of >32 μg/mL of a β-lactamase inhibitor of exemplary compounds, B represents the MIC in the presence of between 8 and 32 μg/mL of a β-lactamase inhibitor of exemplary compounds, and C represents the MIC in the presence of ≤4 μg/mL of a β-lactamase inhibitor of exemplary compounds. NT=Not Tested.

[2] = tested on: K. pneumoniae expressing the class A carbapenemase KPC-2 and the class B carbapenemase VIM-4; assay: as above; format: cell-based; settings: Fixed Mero 4 μg/mL; CAMHB, 16-20 hours at 37° C.
From the text: as §4, §5, §6

[3] = molecular target: T2, VIM-2 metallo β-lactamase (Pseudomonas aeruginosa, UniProt Q9K2N0); assay: β-lactamase enzyme inhibition assay, VIM-2 (nitrocefin substrate); format: biochemical; settings: 15 min preincubation at 37° C.; nitrocefin 100 μM, 486 nm; read-out: IC50 VIM-2 (Class B)
T2 construct: made in house; host or cells: E. coli BL21(DE3)
Procedure: For VIM-2 metallo β-lactamase, the procedure was identical with the following exceptions, first the protein was not pH adjusted to pH 5 with 50 mM sodium acetate. Second, the chromatography step was changed to a 5 ml Q sepharose anion exchange column pre-equilibrated with 50 mM Hepes pH 7.5, and elution of the protein was achieved by a linear gradient of NaCl (0-600 mM). Finally, the VIM-2 purification required a second run (3rd step) on the Q sepharose anion exchange column to achieve acceptable purity (>90%).
as §2, §3

p99 AmpC = molecular target: T3, p99 AmpC (Enterobacter cloacae, UniProt P05364); assay: β-lactamase enzyme inhibition assay, p99 AmpC (nitrocefin substrate); format: biochemical
T3 construct: made in house; host or cells: E. coli BL21(DE3)
Procedure: as §1, §2, §3

[4] = tested on: K. pneumoniae producing the Class D carbapenemase OXA-48; assay: Broth microdilution MIC assay, potentiation of meropenem; format: cell-based; settings: Fixed Mero 4 μg/mL; CAMHB, 16-20 hours at 37° C.
From the text: as §4, §5

[5] = tested on: K. pneumoniae expressing the Class A carbapenemase KPC-3; assay: as above; format: cell-based; settings: Fixed Mero 4 μg/mL; CAMHB, 16-20 hours at 37° C.
From the text: as §4, §5

OXA-48 = molecular target: T4, OXA-48 (Klebsiella pneumoniae, UniProt Q6XEC0); assay: β-lactamase enzyme inhibition assay, OXA-48 (nitrocefin substrate); format: biochemical
T4 construct: made in house; host or cells: E. coli BL21(DE3)
Procedure: as §1, §2, §3

KPC-2 = molecular target: T5, KPC-2 (Klebsiella pneumoniae, UniProt Q9F663); assay: β-lactamase enzyme inhibition assay, KPC-2 (imipenem substrate); format: biochemical
T5 construct: made in house; host or cells: E. coli BL21(DE3)
Procedure: as §1, §2, §3

[6] = tested on: E. coli expressing the Class A Extended Spectrum Beta-Lactamase (ESBL) CTX-M-15; assay: Broth microdilution MIC assay, potentiation of ceftazidime; format: cell-based; settings: Fixed CAZ 4 μg/mL; CAMHB, 16-20 hours at 37° C.
From the text: as §4, §5, §6

[7] = tested on: E. cloacae expressing the Class C P99; assay: as above; format: cell-based; settings: Fixed CAZ 4 μg/mL; CAMHB, 16-20 hours at 37° C.
From the text: as §4, §5, §6

T4 sequence (Q6XEC0 23-265 limits assumed): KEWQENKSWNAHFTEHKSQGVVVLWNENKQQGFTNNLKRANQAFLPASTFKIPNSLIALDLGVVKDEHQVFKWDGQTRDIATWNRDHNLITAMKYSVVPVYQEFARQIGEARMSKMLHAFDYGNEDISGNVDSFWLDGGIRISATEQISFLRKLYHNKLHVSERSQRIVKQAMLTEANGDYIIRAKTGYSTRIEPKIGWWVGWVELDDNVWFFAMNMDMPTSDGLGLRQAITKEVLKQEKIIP
T1 sequence (P0A3M1 22-286): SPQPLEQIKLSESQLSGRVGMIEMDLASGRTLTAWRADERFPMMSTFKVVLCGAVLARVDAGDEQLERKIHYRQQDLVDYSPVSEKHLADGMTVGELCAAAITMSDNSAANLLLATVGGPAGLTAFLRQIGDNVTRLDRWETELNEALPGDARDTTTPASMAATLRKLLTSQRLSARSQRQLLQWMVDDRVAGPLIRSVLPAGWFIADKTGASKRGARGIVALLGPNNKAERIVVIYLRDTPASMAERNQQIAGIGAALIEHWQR
T3 sequence (P05364 21-381): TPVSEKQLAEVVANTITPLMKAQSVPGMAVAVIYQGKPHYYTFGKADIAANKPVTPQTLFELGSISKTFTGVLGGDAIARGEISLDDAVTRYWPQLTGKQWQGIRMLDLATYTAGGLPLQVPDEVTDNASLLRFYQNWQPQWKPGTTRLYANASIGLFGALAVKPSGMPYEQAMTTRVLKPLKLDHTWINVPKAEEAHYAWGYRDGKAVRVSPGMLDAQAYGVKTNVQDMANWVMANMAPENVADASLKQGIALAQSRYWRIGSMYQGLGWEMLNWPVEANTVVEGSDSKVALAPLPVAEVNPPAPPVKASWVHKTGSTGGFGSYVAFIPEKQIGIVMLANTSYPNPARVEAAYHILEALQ
T5 sequence (Q9F663 25-293 limits assumed): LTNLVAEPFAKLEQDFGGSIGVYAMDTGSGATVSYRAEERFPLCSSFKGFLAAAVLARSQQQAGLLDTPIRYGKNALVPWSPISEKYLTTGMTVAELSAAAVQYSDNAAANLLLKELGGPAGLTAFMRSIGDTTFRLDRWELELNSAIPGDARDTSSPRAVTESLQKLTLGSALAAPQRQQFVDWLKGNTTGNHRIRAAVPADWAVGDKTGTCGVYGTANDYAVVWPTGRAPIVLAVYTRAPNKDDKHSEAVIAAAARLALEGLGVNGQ

For `CC(F)(F)CCC(=O)N[C@H]1Cc2cccc(C(=O)O)c2OB1O` [Example 85, (R)-3-(4,4-Difluoro-pentanoylamino)-2-hydroxy-3,4-dihydro-2H -benzo[e][1,2]oxaborinine-8-carboxylic acid], the IC50 (SHV-5) was under 100 nM, the “MIC (μg/mL) of exemplary compounds in presence of fixed β-lactams, P. aerug. 2775 VIM-2” value [1] was “C (C represents the MIC in the presence of ≤4 μg/mL of a β-lactamase inhibitor)” and the “MIC (μg/mL) of exemplary compounds in presence of fixed β-lactams, K.P. A-1797 KPC-2 VIM-4” value [2] was “B (B represents the MIC in the presence of between 8 and 32 μg/mL of a β-lactamase inhibitor)”. The IC50 [3] was 1000 to 10000 nM, the IC50 (p99 AmpC) was under 100 nM and the “MIC (μg/mL) of exemplary compounds in presence of fixed β-lactams, K. P. 11978 OXA-48” value [4] was “C (C represents the MIC in the presence of ≤4 μg/mL of a β-lactamase inhibitor)”. For the same compound, the “MIC (μg/mL) of exemplary compounds in presence of fixed β-lactams, K. P. 156319 KPC-3” value [5] was “C (C represents the MIC in the presence of ≤4 μg/mL of a β-lactamase inhibitor)”, the IC50 (OXA-48) was 1000 to 10000 nM and the IC50 (KPC-2) was under 100 nM. The “MIC (μg/mL) of exemplary compounds in presence of fixed β-lactams, E. coli ESBL4 CTX-M-15” value [6] was “C (C represents the MIC in the presence of ≤4 μg/mL of a β-lactamase inhibitor)” and the “MIC (μg/mL) of exemplary compounds in presence of fixed β-lactams, E. cl. 144200 p99 AmpC” value [7] was “C (C represents the MIC in the presence of ≤4 μg/mL of a β-lactamase inhibitor)”.
